{
  "source": "BindingDB's records for doi:10.7270/Q2D21W1M",
  "about": "(Nmmlsc, 2009)",
  "biological_target": "T1, GTPase KRas [1-37] (Homo sapiens, UniProt G3V5T7)",
  "T1 construct": "1-37",
  "T1 sequence (G3V5T7 whole entry)": "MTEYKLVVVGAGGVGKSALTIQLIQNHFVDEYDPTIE",
  "assay": "Ras wt fluorescent nucleotide binding blockade – biochemical, additional analogs, wildtype, multiplex flow cytometry, Ki, SAR follow-up (AID 2038)",
  "key": {"[1]": {"details": "inactive by the depositor's call"}},
  "data": [
    {"smiles": "O=C1N=c2c(Cl)cccc2=C1c1[nH]c2ccccc2c1NO", "note": "[7-chloro-3-[3-(hydroxyamino)-1H-indol-2-yl]-2-indolone]", "values": [
      {"measurement": "EC50", "value": 30, "unit": "µM"}
    ]},
    {"smiles": "O=C(C#Cc1ccccc1)c1ccccc1", "note": "[UNM-0000306039]", "values": [
      {"measurement": "EC50", "setting": "[1]", "value": 30, "unit": "µM"}
    ]},
    {"smiles": "C[C@@H](C(=O)O)c1cccc(Oc2ccccc2)c1", "note": "[calcium;2-(3-phenoxyphenyl)propanoic acid;hydrate]", "values": [
      {"measurement": "EC50", "value": 30, "unit": "µM"}
    ]},
    {"smiles": "O=C(C#Cc1ccccc1)c1ccc(F)cc1", "note": "[UNM-0000306059]", "values": [
      {"measurement": "EC50", "setting": "[1]", "value": 31, "unit": "µM"}
    ]},
    {"smiles": "COc1ccc2cc([C@H](C)C(=O)O)ccc2c1", "note": "[UNM-0000306098]", "values": [
      {"measurement": "EC50", "value": 30, "unit": "µM"}
    ]},
    {"smiles": "COc1ccc2cc([C@@H](C)C(=O)O)ccc2c1", "note": "[sodium;(2R)-2-(6-methoxy-2-naphthalenyl)propanoate]", "values": [
      {"measurement": "EC50", "value": 3.11, "unit": "µM"}
    ]},
    {"smiles": "O=C1NC(=O)/C(=C2/C(=O)Nc3ccccc32)N1", "values": [
      {"measurement": "EC50", "value": 30, "unit": "µM"}
    ]},
    {"smiles": "CC(C)Cc1ccc([C@H](C)C(=O)O)cc1", "note": "[(S)-2-(4-Isobutyl-phenyl)-propionic acid]", "values": [
      {"measurement": "EC50", "setting": "[1]", "value": 30, "unit": "µM"}
    ]},
    {"smiles": "O=C1N=c2c(Br)cccc2=C1c1[nH]c2ccccc2c1NO", "note": "[7-bromanyl-3-[3-(oxidanylamino)-1H-indol-2-yl]indol-2-one]", "values": [
      {"measurement": "EC50", "value": 37.5, "unit": "µM"}
    ]},
    {"smiles": "O=C1Nc2c(F)cccc2C1=C1Nc2ccccc2C1=O", "values": [
      {"measurement": "EC50", "value": 30, "unit": "µM"}
    ]},
    {"smiles": "CSc1ccc(/C=C2/C(C)=C(CC(=O)O)c3cc(F)ccc32)cc1", "note": "[{6-Fluoro-2-methyl-3-[1-(4-methylsulfanyl-phenyl)-meth-(E)-ylidene]-3H-inden-1-yl}-acetic acid]", "values": [
      {"measurement": "EC50", "setting": "[1]", "value": 30, "unit": "µM"}
    ]},
    {"smiles": "O=C1Nc2ccccc2/C1=C1/Cc2ccccc2C1=O", "note": "[UNM-0000305763]", "values": [
      {"measurement": "EC50", "setting": "[1]", "value": 30, "unit": "µM"}
    ]},
    {"smiles": "COc1ccc(-c2c(C#N)c(N)n(S(C)(=O)=O)c2C(=O)c2ccccc2)cc1Br", "note": "[2-azanyl-4-(3-bromanyl-4-methoxy-phenyl)-1-methylsulfonyl-5-(phenylcarbonyl)pyrrole-3-carbonitrile]", "values": [
      {"measurement": "EC50", "setting": "[1]", "value": 30, "unit": "µM"}
    ]},
    {"smiles": "CC(C(=O)O)c1cccc(C(=O)c2ccccc2)c1", "note": "(configuration not stated) [2-(3-benzoylphenyl)propanoic acid]", "values": [
      {"measurement": "EC50", "setting": "[1]", "value": 30, "unit": "µM"}
    ]},
    {"smiles": "O=[N+]([O-])c1ccc(C#Cc2ccccc2)cc1", "values": [
      {"measurement": "EC50", "setting": "[1]", "value": 30, "unit": "µM"}
    ]},
    {"smiles": "O=C1Nc2c(Br)cccc2/C1=C1/Cc2ccccc2C1=O", "note": "[(3E)-7-bromo-3-(3-oxo-1H-inden-2-ylidene)-1H-indol-2-one]", "values": [
      {"measurement": "EC50", "setting": "[1]", "value": 30, "unit": "µM"}
    ]},
    {"smiles": "N#Cc1c(-c2ccc(Cl)cc2)c(C(=O)c2ccccc2)n(S(=O)(=O)c2ccc([N+](=O)[O-])cc2)c1N", "note": "[UNM-0000305780]", "values": [
      {"measurement": "EC50", "setting": "[1]", "value": 30, "unit": "µM"}
    ]},
    {"smiles": "O=C(C#Cc1ccccc1)c1ccc(OC(F)(F)F)cc1", "values": [
      {"measurement": "EC50", "setting": "[1]", "value": 30, "unit": "µM"}
    ]},
    {"smiles": "O=C(C#Cc1ccccc1)c1ccc([N+](=O)[O-])cc1", "note": "[1-(4-nitrophenyl)-3-phenyl-2-propyn-1-one]", "values": [
      {"measurement": "EC50", "setting": "[1]", "value": 30, "unit": "µM"}
    ]},
    {"smiles": "O=C1N=c2ccc(Br)cc2=C1c1[nH]c2ccccc2c1NO", "note": "[5-bromanyl-3-[3-(oxidanylamino)-1H-indol-2-yl]indol-2-one]", "values": [
      {"measurement": "EC50", "value": 30, "unit": "µM"}
    ]},
    {"smiles": "COc1ccc(S(=O)(=O)n2c(N)c(C#N)c(-c3ccccc3)c2C(=O)c2ccc(Br)cc2)cc1", "values": [
      {"measurement": "EC50", "setting": "[1]", "value": 30, "unit": "µM"}
    ]},
    {"smiles": "CC1=C(CC(=O)O)c2cc(F)ccc2/C1=C/c1ccc([S+](C)[O-])cc1", "note": "(configuration not stated) [UNM-0000306136]", "values": [
      {"measurement": "EC50", "setting": "[1]", "value": 30, "unit": "µM"}
    ]},
    {"smiles": "O=C1N=c2c(F)cccc2=C1c1[nH]c2ccccc2c1NO", "note": "[7-fluoro-3-[3-(hydroxyamino)-1H-indol-2-yl]-2-indolone]", "values": [
      {"measurement": "EC50", "value": 30, "unit": "µM"}
    ]},
    {"smiles": "COc1ccc2cc(CC(=O)O)ccc2c1", "note": "[2-(6-methoxynaphthalen-2-yl)ethanoic acid]", "values": [
      {"measurement": "EC50", "setting": "[1]", "value": 30, "unit": "µM"}
    ]},
    {"smiles": "O=C1Nc2cccc(Br)c2/C1=C1/Cc2ccccc2C1=O", "values": [
      {"measurement": "EC50", "setting": "[1]", "value": 30, "unit": "µM"}
    ]},
    {"smiles": "O=C1Nc2ccccc2/C1=C1/Nc2ccccc2C1=O", "note": "[2-[(3Z)-2-oxo-2,3-dihydro-1H-indol-3-ylidene]-2,3-dihydro-1H-indol-3-one]", "values": [
      {"measurement": "EC50", "value": 30, "unit": "µM"}
    ]},
    {"smiles": "CC(=O)Oc1ccccc1C(=O)O", "note": "[2-(acetyloxy)benzoic acid]", "values": [
      {"measurement": "EC50", "setting": "[1]", "value": 30, "unit": "µM"}
    ]},
    {"smiles": "COC(=O)c1ccc(C(=O)C#Cc2ccccc2)cc1", "note": "[4-(1-oxo-3-phenylprop-2-ynyl)benzoic acid methyl ester]", "values": [
      {"measurement": "EC50", "setting": "[1]", "value": 30, "unit": "µM"}
    ]},
    {"smiles": "COc1ccc(S(=O)(=O)n2c(N)c(C#N)c(-c3cc(Br)c(OC)c(OC)c3)c2C(=O)c2ccccc2)cc1", "note": "[UNM-0000305782]", "values": [
      {"measurement": "EC50", "setting": "[1]", "value": 30, "unit": "µM"}
    ]},
    {"smiles": "N#Cc1ccc(C(=O)C#Cc2ccccc2)cc1", "note": "[4-(3-phenylprop-2-ynoyl)benzenecarbonitrile]", "values": [
      {"measurement": "EC50", "setting": "[1]", "value": 30, "unit": "µM"}
    ]},
    {"smiles": "COc1ccc(C(=O)C#Cc2ccccc2)cc1", "note": "[1-(4-methoxyphenyl)-3-phenyl-2-propyn-1-one]", "values": [
      {"measurement": "EC50", "setting": "[1]", "value": 30, "unit": "µM"}
    ]},
    {"smiles": "O=C(C#Cc1ccccc1)c1ccc(Cl)cc1", "note": "[UNM-0000306055]", "values": [
      {"measurement": "EC50", "setting": "[1]", "value": 30, "unit": "µM"}
    ]},
    {"smiles": "O=C(C#Cc1ccccc1)c1cccnc1", "note": "[3-phenyl-1-pyridin-3-ylprop-2-yn-1-one]", "values": [
      {"measurement": "EC50", "setting": "[1]", "value": 30, "unit": "µM"}
    ]},
    {"smiles": "O=C1Nc2c(Cl)cccc2C1=C1Nc2ccccc2C1=O", "values": [
      {"measurement": "EC50", "value": 30, "unit": "µM"}
    ]},
    {"smiles": "O=C1N=c2ccccc2=C1c1[nH]c2ccccc2c1NO", "note": "[3-[3-(hydroxyamino)-1H-indol-2-yl]-2-indolone]", "values": [
      {"measurement": "EC50", "value": 30, "unit": "µM"}
    ]},
    {"smiles": "O=C1NC(=S)N/C1=C1\\C(=O)Nc2ccccc21", "note": "[(3Z)-3-(5-oxo-2-sulfanylideneimidazolidin-4-ylidene)-1H-indol-2-one]", "values": [
      {"measurement": "EC50", "value": 30, "unit": "µM"}
    ]},
    {"smiles": "CCCCS(=O)(=O)n1c(N)c(C#N)c(-c2cc(OC)c(OC)c(OC)c2)c1C(=O)c1ccccc1", "note": "[2-amino-5-benzoyl-1-butylsulfonyl-4-(3,4,5-trimethoxyphenyl)-3-pyrrolecarbonitrile]", "values": [
      {"measurement": "EC50", "setting": "[1]", "value": 30, "unit": "µM"}
    ]},
    {"smiles": "COc1ccc(S(=O)(=O)n2c(N)c(C#N)c(-c3cncc(Br)c3)c2C(=O)c2ccccc2)cc1", "note": "[2-amino-5-benzoyl-4-(5-bromo-3-pyridinyl)-1-(4-methoxyphenyl)sulfonyl-3-pyrrolecarbonitrile]", "values": [
      {"measurement": "EC50", "setting": "[1]", "value": 30, "unit": "µM"}
    ]},
    {"smiles": "COc1cc(-c2c(C#N)c(N)n(S(=O)(=O)c3c(C(C)C)cc(C(C)C)cc3C(C)C)c2C(=O)c2ccccc2)cc(OC)c1OC", "note": "[2-azanyl-5-(phenylcarbonyl)-4-(3,4,5-trimethoxyphenyl)-1-[2,4,6-tri(propan-2-yl)phenyl]sulfonyl-pyrrole-3-carbonitrile]", "values": [
      {"measurement": "EC50", "setting": "[1]", "value": 30, "unit": "µM"}
    ]},
    {"smiles": "O=C1Nc2ccc(Br)cc2C1=C1Nc2ccccc2C1=O", "values": [
      {"measurement": "EC50", "value": 30, "unit": "µM"}
    ]},
    {"smiles": "O=C1Nc2c(Br)cccc2C1=C1Nc2ccccc2C1=O", "values": [
      {"measurement": "EC50", "value": 30, "unit": "µM"}
    ]},
    {"smiles": "O=C(C#Cc1ccccc1)c1ccccc1[N+](=O)[O-]", "note": "[UNM-0000306038]", "values": [
      {"measurement": "EC50", "setting": "[1]", "value": 30, "unit": "µM"}
    ]}
  ]
}
